Test results taken from patent US20030224485A1, “Expression system for ABC transporters” (priority 2002, published 2003).
Blank lines part the entries; values can stand above or below the compound they belong to.

How the values were obtained:
[1] = target: T1, co-expressed N and C halves of ABCR (Homo sapiens, UniProt P78363); assay: 8-azido-ATP photoaffinity labeling of membranes from transfected cells; type: binding; details: 1 mM ATP added prior to labeling with 1.5 μM 8-azido-[α-32P]ATP; FIG. 5A lane 4; C-half labeled
T1 construct: N-half (amino acids 1-1325) and C-half (amino acids 1326-2273) of ABCR; added initiator Met (ATG in the forward primer, read by me) (N); made in house; host or cells: COS-1 (co-transfection)
T1 sequence (P78363 1-1325): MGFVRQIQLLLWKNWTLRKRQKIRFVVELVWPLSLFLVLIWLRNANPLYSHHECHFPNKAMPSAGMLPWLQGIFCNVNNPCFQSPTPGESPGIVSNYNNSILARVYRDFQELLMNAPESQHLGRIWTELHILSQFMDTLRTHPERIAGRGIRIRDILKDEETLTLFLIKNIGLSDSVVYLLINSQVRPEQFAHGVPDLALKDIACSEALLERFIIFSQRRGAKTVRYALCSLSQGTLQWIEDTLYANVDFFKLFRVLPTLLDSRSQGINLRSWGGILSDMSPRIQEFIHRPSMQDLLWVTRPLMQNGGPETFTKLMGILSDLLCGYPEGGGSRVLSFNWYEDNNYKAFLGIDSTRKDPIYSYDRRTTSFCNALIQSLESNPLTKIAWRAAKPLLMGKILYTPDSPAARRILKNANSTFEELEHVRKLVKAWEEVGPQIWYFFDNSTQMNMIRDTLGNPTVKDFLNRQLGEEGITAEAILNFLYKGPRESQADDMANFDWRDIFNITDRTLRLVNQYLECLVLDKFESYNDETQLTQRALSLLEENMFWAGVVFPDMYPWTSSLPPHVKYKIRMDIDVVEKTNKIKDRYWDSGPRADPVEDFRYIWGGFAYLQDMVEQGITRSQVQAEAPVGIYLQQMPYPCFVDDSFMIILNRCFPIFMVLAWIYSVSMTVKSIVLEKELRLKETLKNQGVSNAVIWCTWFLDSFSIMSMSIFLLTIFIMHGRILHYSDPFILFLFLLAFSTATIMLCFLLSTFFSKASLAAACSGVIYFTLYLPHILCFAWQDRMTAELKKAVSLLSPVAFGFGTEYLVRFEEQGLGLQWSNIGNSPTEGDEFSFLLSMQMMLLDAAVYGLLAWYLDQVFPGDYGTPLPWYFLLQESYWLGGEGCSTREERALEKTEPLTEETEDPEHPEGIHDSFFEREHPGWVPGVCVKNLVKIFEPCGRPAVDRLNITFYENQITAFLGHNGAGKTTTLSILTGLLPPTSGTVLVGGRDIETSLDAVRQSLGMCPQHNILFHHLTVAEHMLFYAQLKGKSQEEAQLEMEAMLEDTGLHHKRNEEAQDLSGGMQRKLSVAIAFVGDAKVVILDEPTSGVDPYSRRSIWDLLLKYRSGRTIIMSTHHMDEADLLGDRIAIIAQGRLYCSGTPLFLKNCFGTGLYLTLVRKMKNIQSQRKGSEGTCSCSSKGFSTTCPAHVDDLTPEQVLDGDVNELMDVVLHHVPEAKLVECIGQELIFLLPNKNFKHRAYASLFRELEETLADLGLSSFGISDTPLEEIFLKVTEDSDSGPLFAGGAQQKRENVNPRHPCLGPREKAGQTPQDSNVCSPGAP
T1 sequence (P78363 1326-2273): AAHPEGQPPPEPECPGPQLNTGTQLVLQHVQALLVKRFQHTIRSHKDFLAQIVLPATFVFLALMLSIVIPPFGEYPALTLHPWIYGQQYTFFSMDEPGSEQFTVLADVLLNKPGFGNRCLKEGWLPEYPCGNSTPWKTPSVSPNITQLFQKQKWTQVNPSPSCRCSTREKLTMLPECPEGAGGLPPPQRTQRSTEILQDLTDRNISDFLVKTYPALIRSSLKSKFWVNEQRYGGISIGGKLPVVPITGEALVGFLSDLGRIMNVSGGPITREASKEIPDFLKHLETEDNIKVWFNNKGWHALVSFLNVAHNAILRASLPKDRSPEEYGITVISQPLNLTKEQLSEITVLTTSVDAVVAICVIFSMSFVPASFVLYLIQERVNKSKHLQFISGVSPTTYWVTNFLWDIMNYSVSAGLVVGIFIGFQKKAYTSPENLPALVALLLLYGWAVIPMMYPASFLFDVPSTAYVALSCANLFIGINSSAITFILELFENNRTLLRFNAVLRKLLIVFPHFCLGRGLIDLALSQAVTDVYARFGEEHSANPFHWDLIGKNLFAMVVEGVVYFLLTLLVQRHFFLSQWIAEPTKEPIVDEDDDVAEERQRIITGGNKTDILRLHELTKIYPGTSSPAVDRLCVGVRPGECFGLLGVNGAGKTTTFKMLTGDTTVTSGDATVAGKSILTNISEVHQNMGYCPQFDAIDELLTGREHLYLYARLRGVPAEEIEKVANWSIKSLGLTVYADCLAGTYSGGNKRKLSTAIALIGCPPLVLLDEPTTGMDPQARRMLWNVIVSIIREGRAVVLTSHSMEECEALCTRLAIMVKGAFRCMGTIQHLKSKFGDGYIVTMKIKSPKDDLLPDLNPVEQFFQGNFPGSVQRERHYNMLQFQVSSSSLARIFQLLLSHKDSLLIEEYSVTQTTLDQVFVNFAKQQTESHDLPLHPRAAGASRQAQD
Experimental: (§1) Preparation of Membranes—Membranes from transfected cells were prepared as described previously (Bungert, S., Molday, L. L., and Molday, R. S. (2001) J Biol Chem 276(26), 23539-46). In some experiments, the protocol was scaled down and the cell homogenate from one or two 10-cm dishes, after passing through a 26-gauge needle (6 times), was centrifuged on a discontinuous gradient consisting of 5% and 60% sucrose for 30 min at 30,000 rpm (60,000×g) in a TLS55 rotor (Beckman Optima TL ultracentrifuge).
(§2) 8-Azido-ATP Photoaffinity Labeling—Membranes (50-150 μg protein) in 50 μl of labeling buffer (20 mM Tris-HCl, pH 7.4, 140 mM NaCl, 5 mM MgCl2) were incubated with 1-4 μM 8-azido-[α-^32P]ATP (Perkin-Elmer Life Science; 20 Ci/mmol) on ice, with gentle shaking, under UV light (254 nm) for 10 min at a distance of 10 cm. Ice-cold 20 mM Tris-HCl, pH 7.4, was added and the membranes were collected by centrifugation (TLA45 rotor, 55000 g, 15 min). The membrane suspension (200 μl in TBS [Tris-HCl, pH 7.4, 140 mM NaCl]) was added to 200 μl of 2% Triton X-100 in TBS, pH 7.4). After 30 min on ice, the cleared extract was mixed with 25 μl antibody coupled to Sepharose 2B for 1-12 h at 4° C. The beads were washed 4 times in TBS containing 0.2% Triton X-100 and eluted twice, 30 μl each, in 4% SDS, 0.2% Triton X-100, TBS. […]

full-length ABCR [2] = target: T2, full-length ABCR (Homo sapiens, UniProt P78363); assay: as above; type: binding; set-up: Membranes from transfected cells expressing either full-length ABCR (lanes 1 & 2); expressed in transfected cells; host or cells: transfected cells (COS-1 or EBNA293); details: 1 mM ATP added prior to labeling with 1.5 μM 8-azido-[α-32P]ATP; FIG. 5A lane 2
Experimental: as §1, §2

ABCR = target: T3, ABCR (Homo sapiens, UniProt P78363); assay: 8-azido-ATP/ADP trapping in membranes from transfected cells; type: binding; details: 5 μM 8-azido-[α-32P]ATP, 37° C.; 800 μM orthovanadate, 50 μM all-trans retinal, or 10 mM MgATP in wash step
T3 construct: Membranes from transfected cells expressing either full-length ABCR (lanes 1 & 2) or co-expressing the N and C halves; expressed in transfected cells; host or cells: transfected cells (COS-1 or EBNA293)
Experimental: 8-Azido-ATP Trapping—Membranes were incubated with 5 [M 8-azido-[α-^32P]ATP in 50 μl of labeling buffer with or without 800 μM sodium orthovanadate for 10 min at 37° C. All-trans retinal and 50 μM DTT were added where indicated. Binding was stopped by the addition of ice-cold 20 mM Tris-HCl, pH 7.4, the membranes were collected by centrifugation and washed one more time. Samples exposed to orthovanadate were washed in the presence of 800 μM orthovanadate. In some experiments MgATP (10 mM) was included in the wash step, but had no effect. The membranes were suspended in 30 μl of 20 mM Tris-HCl, pH 7.4, irradiated with UV light for 10 min on ice, diluted to 200 μl with TBS, pH 7.4, and solubilized as described above for azido-ATP binding.
To gain more insight into the properties of the NBD of ABCR, trapping experiments were carried out using 8-azido-[α^32P]ATP.

full-length ABCR [3] = target: T2, full-length ABCR; assay: Retinal-stimulated ATPase activity of purified protein reconstituted in lipid vesicles; type: biochemical; set-up: Membranes from transfected cells expressing either full-length ABCR (lanes 1 & 2) or co-expressing the N and C halves; expressed in transfected cells; host or cells: transfected cells (COS-1 or EBNA293); details: expressed in COS-1 cells, purified on Rim 3F4 column, 50 μM [α32P]ATP
Experimental: Membranes (from two 10 cm dishes) were solubilized in 0.5 ml of 1% Triton-X100 in Buffer A (140 mM NaCl, 20 mM Tris-HCl, pH 7.4) for 20 min on ice. For ATPase assays, the membrane preparation step was omitted and the cell suspension was solubilized directly in Buffer B (10 mg/ml soybean phospholipids, 10% glycerol, 1 mM dithiothreitol, 100 mM NaCl, 3 mM MgCl2, 50 mM NaHEPES, pH 7.4) containing 18 mM CHAPS. The supernatant after a 10 min centrifugation at 40,000 rpm (TLA100.4 rotor) was mixed with 50 μl Rim3F4 Sepharose 2B for 1 h at 4° C. The beads were washed 6 times in Buffer A containing 0.2% Triton X-100 or Buffer B containing 10 mM CHAPS and eluted with 4% SDS (for electrophoresis) or 0.2 mg/ml Rim3F4 peptide (for reconstitution and determination of ATPase activity). […]
ATPase activity was measured as described previously (Ahn, J., Wong, J. T., and Molday, R. S. (2000) J Biol Chem 275(27), 20399-405) using 50 μM [α^32P]ATP and thin layer chromatography. The all-trans retinal concentration was determined spectrophotometrically (λ383 nm=42.88 mM^−1 cm^−1). […]
(§3) ATPase Activity of Expressed N and C Halves—The basal and retinal activated ATPase activity of full-length ABCR and the N and C halves individually or co-expressed in COS-1 cells was determined after immunoaffinity purification and reconstitution into lipid vesicles. […]

[4] = target: T4, individually expressed C half of ABCR (Homo sapiens, UniProt P78363); assay: as above; type: biochemical; details: individually expressed in COS-1 cells
T4 construct: N-half (amino acids 1-1325) and C-half (amino acids 1326-2273) of ABCR; added initiator Met (ATG in the forward primer, read by me) (N); made in house; host or cells: COS-1
T4 sequence (P78363 1326-2273): T1 sequence (P78363 1326-2273)
Experimental: (§4) Membranes (from two 10 cm dishes) were solubilized in 0.5 ml of 1% Triton-X100 in Buffer A (140 mM NaCl, 20 mM Tris-HCl, pH 7.4) for 20 min on ice. For ATPase assays, the membrane preparation step was omitted and the cell suspension was solubilized directly in Buffer B (10 mg/ml soybean phospholipids, 10% glycerol, 1 mM dithiothreitol, 100 mM NaCl, 3 mM MgCl2, 50 mM NaHEPES, pH 7.4) containing 18 mM CHAPS. The supernatant after a 10 min centrifugation at 40,000 rpm (TLA100.4 rotor) was mixed with 50 μl Rim3F4 Sepharose 2B for 1 h at 4° C. The beads were washed 6 times in Buffer A containing 0.2% Triton X-100 or Buffer B containing 10 mM CHAPS and eluted with 4% SDS (for electrophoresis) or 0.2 mg/ml Rim3F4 peptide (for reconstitution and determination of ATPase activity). Purified protein (24 μl) was incubated with 6 μl of 50 mg/ml lipid (1:1 mixture of dioleoylphosphatidylethanolamine and brain polar lipid, by weight) and 3 μl n-octylglucoside for 30 min on ice. The mixture was diluted rapidly with 200 μl of Buffer C (1 mM dithiothreitol, 140 mM NaCl, 25 mM NaHEPES, pH 7.4) and passed through a 200 μl Extracti-gel column (Pierce). The flow-through containing the reconstituted protein was used for determination of ATPase activity.
(§5) ATPase activity was measured as described previously (Ahn, J., Wong, J. T., and Molday, R. S. (2000) J Biol Chem 275(27), 20399-405) using 50 μM [α^32P]ATP and thin layer chromatography. The all-trans retinal concentration was determined spectrophotometrically (λ383 nm=42.88 mM^−1 cm^−1). Protein concentration was estimated from the eluate before reconstitution by laser densitometry of Coomassie blue stained gels using bovine serum albumin as a standard. […] Direct protein measurements after reconstitution by densitometry of Western blots was about half of that in the eluate. […]
as §3

[5] = target: T5, individually expressed N half of ABCR containing 1D4 epitope tag (N*) (Homo sapiens, UniProt P78363); assay: as above; type: biochemical; details: individually expressed in COS-1 cells, purified on Rho1D4-Sepharose
T5 construct: N-half (amino acids 1-1325) and C-half (amino acids 1326-2273) of ABCR; made in house; host or cells: COS-1
T5 sequence (P78363 1-1325): T1 sequence (P78363 1-1325)
Experimental: as §4, §5, §3

[6] = target: T1, co-expressed N and C halves of ABCR; assay: as above; type: biochemical; details: co-expressed in COS-1 cells, purified on Rim 3F4 column, 50 μM [α32P]ATP
Experimental: as §4, §5, §3

T3 sequence (P78363 whole entry): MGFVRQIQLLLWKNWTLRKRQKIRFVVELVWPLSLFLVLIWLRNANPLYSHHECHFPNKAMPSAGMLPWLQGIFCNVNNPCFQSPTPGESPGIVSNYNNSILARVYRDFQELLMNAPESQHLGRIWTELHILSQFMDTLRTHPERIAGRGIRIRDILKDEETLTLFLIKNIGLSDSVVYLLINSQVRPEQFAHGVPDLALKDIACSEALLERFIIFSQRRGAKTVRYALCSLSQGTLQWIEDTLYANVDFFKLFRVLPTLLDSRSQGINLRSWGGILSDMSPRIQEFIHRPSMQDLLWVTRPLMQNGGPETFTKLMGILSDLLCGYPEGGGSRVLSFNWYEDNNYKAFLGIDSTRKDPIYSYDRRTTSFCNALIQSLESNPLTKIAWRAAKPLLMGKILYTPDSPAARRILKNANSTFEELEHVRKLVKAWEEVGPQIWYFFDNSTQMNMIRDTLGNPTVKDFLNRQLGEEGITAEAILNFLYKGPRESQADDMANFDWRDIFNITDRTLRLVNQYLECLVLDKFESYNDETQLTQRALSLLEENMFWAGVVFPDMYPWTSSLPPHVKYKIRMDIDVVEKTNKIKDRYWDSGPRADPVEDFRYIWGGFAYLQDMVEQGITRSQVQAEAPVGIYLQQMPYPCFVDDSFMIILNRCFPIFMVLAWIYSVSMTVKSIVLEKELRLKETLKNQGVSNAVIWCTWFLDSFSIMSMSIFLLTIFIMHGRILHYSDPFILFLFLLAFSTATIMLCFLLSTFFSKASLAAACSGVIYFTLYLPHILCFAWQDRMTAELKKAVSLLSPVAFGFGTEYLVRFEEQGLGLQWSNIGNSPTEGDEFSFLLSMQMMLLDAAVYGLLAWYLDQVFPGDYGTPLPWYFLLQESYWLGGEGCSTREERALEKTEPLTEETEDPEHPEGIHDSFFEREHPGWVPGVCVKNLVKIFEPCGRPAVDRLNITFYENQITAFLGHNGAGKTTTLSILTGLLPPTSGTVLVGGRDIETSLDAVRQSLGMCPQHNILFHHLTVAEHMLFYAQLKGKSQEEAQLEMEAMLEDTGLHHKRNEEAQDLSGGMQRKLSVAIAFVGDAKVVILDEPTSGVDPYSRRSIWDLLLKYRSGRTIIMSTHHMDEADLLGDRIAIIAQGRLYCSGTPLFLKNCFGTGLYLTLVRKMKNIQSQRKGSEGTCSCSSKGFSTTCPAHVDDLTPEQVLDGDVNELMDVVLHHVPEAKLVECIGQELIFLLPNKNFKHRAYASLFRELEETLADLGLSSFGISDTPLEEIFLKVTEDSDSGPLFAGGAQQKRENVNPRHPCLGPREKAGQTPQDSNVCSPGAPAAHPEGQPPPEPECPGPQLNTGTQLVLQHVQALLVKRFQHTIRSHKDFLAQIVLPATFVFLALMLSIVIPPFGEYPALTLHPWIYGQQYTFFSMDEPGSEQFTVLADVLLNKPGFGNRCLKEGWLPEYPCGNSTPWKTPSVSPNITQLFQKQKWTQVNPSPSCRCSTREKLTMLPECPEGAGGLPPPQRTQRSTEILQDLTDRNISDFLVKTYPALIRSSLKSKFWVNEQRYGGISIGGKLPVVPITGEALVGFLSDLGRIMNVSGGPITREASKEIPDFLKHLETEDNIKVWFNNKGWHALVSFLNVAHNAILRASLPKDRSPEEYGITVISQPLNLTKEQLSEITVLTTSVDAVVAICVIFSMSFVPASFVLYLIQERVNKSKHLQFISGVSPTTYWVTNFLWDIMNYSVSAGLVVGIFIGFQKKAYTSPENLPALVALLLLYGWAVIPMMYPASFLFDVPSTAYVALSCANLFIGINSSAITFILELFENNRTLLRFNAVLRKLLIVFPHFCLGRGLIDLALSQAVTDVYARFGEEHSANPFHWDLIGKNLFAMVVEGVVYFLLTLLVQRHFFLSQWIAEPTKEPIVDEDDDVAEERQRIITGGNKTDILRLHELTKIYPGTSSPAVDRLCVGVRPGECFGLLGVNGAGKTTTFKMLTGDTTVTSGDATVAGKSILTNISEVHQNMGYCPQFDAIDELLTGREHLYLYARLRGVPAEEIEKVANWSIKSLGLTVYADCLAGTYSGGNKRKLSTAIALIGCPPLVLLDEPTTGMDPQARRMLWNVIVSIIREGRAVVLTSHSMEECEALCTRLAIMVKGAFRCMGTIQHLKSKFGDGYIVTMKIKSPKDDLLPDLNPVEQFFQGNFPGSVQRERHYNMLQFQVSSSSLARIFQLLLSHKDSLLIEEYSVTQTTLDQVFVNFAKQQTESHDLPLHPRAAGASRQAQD
T2 sequence (P78363 whole entry): as above

- effect on 8-azido-ATP photoaffinity labeling [1]: essentially abolished
- effect on 8-azido-ATP photoaffinity labeling (full-length ABCR [2]): essentially abolished
SMILES: Nc1ncnc2c1ncn2[C@@H]1O[C@H](COP(=O)(O)OP(=O)(O)OP(=O)(O)O)[C@@H](O)[C@H]1O [ATP]

- effect on 8-azido ATP/ADP trapping (ABCR): had no effect
SMILES: Nc1ncnc2c1ncn2[C@@H]1O[C@H](COP(=O)(O)OP(=O)([O-])OP(=O)([O-])O)[C@@H](O)[C@H]1O.[Mg+2] [MgATP]

- stimulation of ATPase activity by all-trans retinal (full-length ABCR [3]): 1-2 fold
- stimulation of ATPase activity by retinal [4]: not stimulated
- stimulation of ATPase activity by retinal [5]: not stimulated
- stimulation of ATPase activity by all-trans retinal [6]: 1-2 fold
SMILES: CC1=C(/C=C/C(C)=C/C=C/C(C)=C/C=O)C(C)(C)CCC1 [all-trans retinal]
- effect on 8-azido ATP/ADP trapping (ABCR): not dependent on sodium orthovanadate or influenced

- effect on 8-azido ATP/ADP trapping (ABCR): not dependent
SMILES: [Na+].[Na+].[Na+].[O]=[V]([O-])([O-])[O-] [sodium orthovanadate]
